Assay results reported in patent US10195156B2, “Compounds and compositions for intracellular delivery of agents” (ModernaTX, Inc., priority 2015, dated 2019).

Assays:
IP-10 = test: Cytokine production induced by sample formulations: IP-10; format: in vivo; conditions: mice, i.v., 0.5 mpk, 6 hours; for IP-10: Table 4, in pg/mL (unit assumed)
How it was run: (§1)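 Cytokine levels were quantified at 6 hours in mice given the nanoparticle compositions i.v. at 0.5 mpk. MC3 standard formulation and PBS served as comparators.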

IL-6 = test: Cytokine production induced by sample formulations: IL-6; format: in vivo; conditions: Table 4; mice, i.v., 0.5 mpk, 6 hours; in pg/mL (unit assumed)
How it was run: as §1

[1] = system: luciferase (Luc) mRNA expression; test: Expression of Luc induced by sample formulations, whole-body bioluminescence after intravenous administration; format: in vivo; conditions: mice, i.v., 0.5 mg/kg; for Total Flux 3 hours / Total Flux 6 hours / Total Flux 24 hours: Table 2
How it was run: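 Read-out is whole-body bioluminescence at 3, 6 and 24 h after a single intravenous dose of 0.5 mg/kg Luc mRNA in nanoparticle formulations. Groups of n=6 mice; PBS and standard MC3 formulation as references.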

[2] = pKa of nanoparticle compositions; format: physicochemical; conditions: Table 1; * lipid:DSPC:Chol:PEG-DMG 50:10:38.5:1.5
[3] = Particle size and polydispersity index of nanoparticle compositions (Zetasizer Nano ZS); format: physicochemical; conditions: for Size (nm) / PDI: Table 1; for Size (nm): * formulated with lipid:DSPC:Chol:PEG-DMG 50:10:38.5:1.5; for PDI: * lipid:DSPC:Chol:PEG-DMG 50:10:38.5:1.5
How it was run: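 Measured in 1×PBS by Zetasizer Nano ZS.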

[4] = Encapsulation efficiency of RNA (QUANT-IT RIBOGREEN RNA assay); format: physicochemical; conditions: for EE (%): Table 1, * lipid:DSPC:Chol:PEG-DMG 50:10:38.5:1.5; for encapsulation efficiency, rank within the named table (in words): comparison amongst compositions
How it was run: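 RiboGreen fluorescence (ex ~480, em ~520 nm) measured after 15 min at 37 °C on samples at ~5 μg/mL in TE, pH 7.5, ± 2% Triton X-100 solution. After blank subtraction, free RNA is given as intact-sample signal divided by disrupted-sample signal.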

[5] = system: modified luciferase expression; test: Expression of Luc in different organs (liver, lung, spleen, femur) 6 hours after intravenous administration; format: in vivo; conditions: Table 3, mice, i.v., 0.5 mpk
Method: The efficacy of the nanoparticle compositions presented in Tables 1, 1a, 17-1, 19-1, 20-1 and 21-1 was further evaluated by measuring the expression of modified luciferase in the liver, lung, spleen, and femur upon administration of a given composition. Formulations were administered intravenously to mice (n=3) at a dosage of 0.5 mpk and bioluminescence measured after 6 hours. The standard MC3 formulation and a PBS control were also tested.

CCCCC/C=C\C/C=C\CCCCCCCCN(CCCCCCCC/C=C\C/C=C\CCCCC)CCN(CCCCCCCC/C=C\C/C=C\CCCCC)CCN1CCN(CCN(CCCCCCCCCCCC)CCCCCCCCCCCC)CC1 [Compound 34, N^1-(2-(4-(2-(Didodecylamino)ethyl)piperazin-1-yl)ethyl)-N^1,N^2,N^2-tri((9Z,12Z)-octadeca-9,12-dien-1-yl)ethane-1,2-diamine]
IP-10 (IP-10): 159 | IL-6 (IL-6): 28 | Total Flux 3 hours [1]: 7.77E+06 | Total Flux 6 hours [1]: 1.88E+07 | Total Flux 24 hours ([1]; 24 hours): 2.19E+06 | pKa [2]: 5.74 | Size (nm) [3]: 66.0 nm | PDI [3]: 0.077 | particle size, rank within the named table (in words) ([3]; comparison amongst compositions): smallest particles | EE (%) [4]: 98.1% | Total Flux Liver [5]: 2.79E+06 | Total Flux Lung [5]: 5.63E+04 | Total Flux Spleen [5]: 1.22E+06

CCCCCCCCCN(CCCCCCCCC)CCN(CCCCCCCCC)CCN1CCNCC1 [Compound 36, N^1,N^1,N^2-Trinonyl-N^2-(2-(piperazin-1-yl)ethyl)ethane-1,2-diamine]
IP-10 (IP-10): 118 | IP-10 induction, rank or comparison with IL-6 (in words) (IP-10): lowest IP-10 expression | IL-6 (IL-6): 41 | Total Flux 3 hours [1]: 6.90E+05 | Total Flux 6 hours [1]: 3.93E+05 | Total Flux 24 hours ([1]; 24 hours): 1.68E+05 | total flux after 24 hours, rank within the named table (in words) ([1]; 24 hours): lowest flux after 24 hours | pKa [2]: 7.81 | Size (nm) [3]: 100.8 nm | PDI [3]: 0.110 | EE (%) [4]: 100.2% | encapsulation efficiency, rank within the named table (in words) [4]: highest | Total Flux Liver [5]: 5.85E+04 | Total Flux Lung [5]: 2.74E+04 | Total Flux Spleen [5]: 1.24E+05

CCCCCCCC/C=C\CCCCCCCCN(CCCCCCCC/C=C\CCCCCCCC)CCN(CCCCCCCC/C=C\CCCCCCCC)CCN1CCNCC1 [Compound 40, N^1,N^1,N^2-Tri((Z)-octadec-9-en-1-yl)-N^2-(2-(piperazin-1-yl)ethyl)ethane-1,2-diamine]
IP-10 (IP-10): 919 | IL-6 (IL-6): 134 | Total Flux 3 hours [1]: 1.24E+08 | Total Flux 6 hours [1]: 1.07E+07 | Total Flux 24 hours ([1]; 24 hours): 5.62E+06 | pKa [2]: 6.78 | Size (nm) [3]: 78.9 nm | PDI [3]: 0.210 | EE (%) [4]: 100.0% | encapsulation efficiency, rank within the named table (in words) [4]: highest | Total Flux Liver [5]: 1.33E+06 | Total Flux Lung [5]: 1.42E+05 | Total Flux Spleen [5]: 5.68E+05

CCCCC/C=C\C/C=C\CCCCCCCCN(CCCCCCCC/C=C\C/C=C\CCCCC)CCN(CCCCCCCC/C=C\C/C=C\CCCCC)CCN1CCNCC1 [Compound 41, N^1,N^1,N^2-Tri((9Z,12Z)-octadeca-9,12-dien-1-yl)-N^2-(2-(piperazin-1-yl)ethyl)ethane-1,2-diamine]
IP-10 (IP-10): 350 | IL-6 (IL-6): 116 | Total Flux 3 hours [1]: 4.06E+07 | Total Flux 6 hours [1]: 2.04E+07 | Total Flux 24 hours ([1]; 24 hours): 6.05E+07 | pKa [2]: 7.02 | Size (nm) [3]: 69.0 nm | PDI [3]: 0.239 | EE (%) [4]: 99.9% | encapsulation efficiency, rank within the named table (in words) [4]: highest | Total Flux Liver [5]: 3.00E+06 | Total Flux Lung [5]: 1.34E+05 | Total Flux Spleen [5]: 2.13E+06
